Values belong to the molecule of their own block, whether it stands above or below them. Positions of bridges follow the written chain, without caps; N, C: chain ends. Non-standard residues stand in square brackets, D forms with d. Residues, ends and D or L forms follow the SMILES beside them.
Legend:
[1] = In vitro plasma stability in heparin-treated fresh rat plasma at 37° C.; format: in vitro ADME; conditions: for AUC0-240: time 0 to 240 minutes; for remaining at 1 min, 1 μM / remaining at 5 min, 1 μM / remaining at 0.25 h, 1 μM / remaining at 0.5 h, 1 μM / remaining at 1 h, 1 μM / remaining at 2 h, 1 μM: heparin-treated fresh rat plasma
Experimental: GPR-397 and GPR-405 were independently added to fresh rat plasma at a final in-vial concentration of 1 μM. The peptides were incubated in a water bath at 37° C. over a time course that included the following points (in minutes): 0, 1, 5, 15, 30, 60, 120, 240, and 1440. After the incubation time was completed, a 50 μL aliquot of plasma was removed and proteins were precipitated using a solution containing internal standard (THR-123 at 150 ng/mL) in methanol with 0.5% acetic acid (v/v). The samples were centrifuged at 13,000 RPM for 5 minutes, and a 100 μL aliquot of supernatant was removed and transferred to a 96-well plate containing 100 μL of reconstitution solution (Water/MeOH/Acetic Acid/TFA, 60/40/0.2/0.05, v/v/v/v). A calibration curve and quality control (QC) samples were prepared in parallel in the same manner as the incubation samples. The calibration range for this assay was from 0.02 to 2.0 μM in rat plasma. The extracted calibrants, QC, and incubation samples were injected onto an AB SCIEX API 2000 LC-MS/MS system. Chromatographic separation was performed using a reversed-phase C18 HPLC column (Ace-3 C18, 30×2.1 mm, 3 μm). The solvent system consisted of Milli-Q water, acetonitrile and formic acid. Analyte and internal standard were detected using the multiple reaction monitoring (MRM) scan mode. Calibration curves were generated by using a weighted (1/concentration) quadratic regression analysis of the peak area ratios (analyte/internal standard) versus the nominal concentration of the calibration standards. The concentration of the analyte in the incubation samples was determined by back-calculating the peak area ratios obtained using the quadratic regression.
FIGS. 9-12 compare the in vitro plasma stability results for GPR-405 and THR-123 incubated in fresh rat plasma treated with heparin. FIG. 9 provides a scatter plot showing the first 240 minutes of the time-course and disappearance of the THR peptides in heparin-treated fresh rat plasma at 37° C. […] FIG. 12 compares the calculated half-life of THR-123 and GPR-405.

Ex-vivo plasma stability = format: in vitro ADME, mouse or rat; conditions: fresh plasma 37° C., 1 μM
[2] = fresh rat plasma 37° C., 1 μM peptide, 0 min
[3] = fresh rat plasma 37° C., 1 μM peptide, 1 min
[4] = fresh rat plasma 37° C., 1 μM peptide, 5 min
[5] = fresh rat plasma 37° C., 1 μM peptide, 15 min
[6] = fresh rat plasma 37° C., 1 μM peptide, 30 min
[7] = fresh rat plasma 37° C., 1 μM peptide, 60 min
[8] = fresh rat plasma 37° C., 1 μM peptide, 120 min
[9] = fresh rat plasma 37° C., 1 μM peptide, 240 min
[10] = fresh rat plasma 37° C., 1 μM peptide, 240 min (4 hours), read-out: TI remaining
[11] = fresh rat plasma 37° C., 1 μM peptide, 1440 min
[12] = fresh rat plasma 37° C., 1 μM peptide
[13] = fresh rat plasma treated with heparin in vitro at 37° C.
[14] = fresh rat plasma 37° C., 1 μM peptide, 1 min, read-out: TI remaining
[15] = fresh rat plasma 37° C., 1 μM peptide, 5 min, read-out: TI remaining
[16] = fresh rat plasma 37° C., 1 μM peptide, 15 min, read-out: TI remaining
[17] = fresh rat plasma 37° C., 1 μM peptide, 30 min, read-out: TI remaining
[18] = fresh rat plasma 37° C., 1 μM peptide, 60 min, read-out: TI remaining
[19] = fresh rat plasma 37° C., 1 μM peptide, 120 min, read-out: TI remaining

Mean plasma concentration [1, 2]: 1095 nM | Sample 1 plasma concentration [1, 2]: 1.100 µM | Sample 2 plasma concentration [1, 2]: 1.090 µM | TI remaining [1, 2]: 100% | Mean plasma concentration [1, 3]: 1065 nM | Sample 1 plasma concentration [1, 3]: 1.080 µM | Sample 2 plasma concentration [1, 3]: 1.050 µM | Mean plasma concentration [1, 4]: 1105 nM | Sample 1 plasma concentration [1, 4]: 1.090 µM | Sample 2 plasma concentration [1, 4]: 1.120 µM | Mean plasma concentration [1, 5]: 1065 nM | Sample 1 plasma concentration [1, 5]: 1.080 µM | Sample 2 plasma concentration [1, 5]: 1.050 µM | TI remaining [1, 5]: 97.3% | Mean plasma concentration [1, 6]: 1002 nM | Sample 1 plasma concentration [1, 6]: 0.963 µM | Sample 2 plasma concentration [1, 6]: 1.040 µM | Mean plasma concentration [1, 7]: 934 nM | Sample 1 plasma concentration [1, 7]: 0.895 µM | Sample 2 plasma concentration [1, 7]: 0.973 µM | Mean plasma concentration [1, 8]: 826 nM | Sample 1 plasma concentration [1, 8]: 0.836 µM | Sample 2 plasma concentration [1, 8]: 0.815 µM | Mean plasma concentration [1, 9]: 538 nM | Sample 1 plasma concentration [1, 9]: 0.534 µM | Sample 2 plasma concentration [1, 9]: 0.541 µM | TI remaining ([1]; fresh rat plasma 37° C., 1 μM peptide, 240 min (4 hours)): 49.1% | remaining at 4 h [1, 10]: 49.1% | Mean plasma concentration [1, 11]: 75 nM | Sample 1 plasma concentration [1, 11]: 0.081 µM | Sample 2 plasma concentration [1, 11]: 0.068 µM | TI remaining ([1]; fresh rat plasma 37° C., 1 μM peptide, 1440 min (24 hours)): 6.8% | remaining at 24 h ([1]; fresh rat plasma 37° C., 1 μM peptide, 1440 min (24 hours), read-out: TI remaining): 6.8% | AUC0-240 [1, 12]: 195.4 μM* min/ml | measured half-life relative to that of THR-123 [1, 13]: about 100 times | stability compared with THR-123 [1, 13]: dramatically more stable than THR-123 | remaining at 1 min, 1 μM [1, 14]: 97.3% | remaining at 5 min, 1 μM [1, 15]: 101% | remaining at 0.25 h, 1 μM [1, 16]: 97.3% | remaining at 0.5 h, 1 μM [1, 17]: 91.5% | remaining at 1 h, 1 μM [1, 18]: 85.3% | remaining at 2 h, 1 μM [1, 19]: 75.4%
Compound: CC(C)C[C@@H]1NC(=O)[C@H](C(C)C)NC(=O)[C@H](CCC(N)=O)NC(=O)[C@H](CO)NC(=O)[C@H](CO)NC(=O)[C@H](CC(N)=O)NC(=O)[C@H](Cc2ccccc2)NC(=O)[C@H](Cc2ccc(O)cc2)NC(=O)[C@H](Cc2ccc(O)cc2)NC(=O)[C@@H](N)CSSC[C@@H](C(=O)N[C@@H](CCCCN)C(=O)N[C@@H](CCCNC(=N)N)C(=O)N[C@H](Cc2ccc(O)cc2)C(=O)N[C@@H](CCCNC(=N)N)C(=O)N[C@@H](CO)C(=O)O)NC1=O [GPR-405, Cys-Tyr-Tyr-Phe-Asn-Ser-Ser-Gln-Val-Leu-Cys-Lys-Arg-(D)Tyr-Arg-Ser] (H-CYYFNSSQVLCKR[dY]RS-OH; disulfide 1-11)

remaining at 1 h (Ex-vivo plasma stability; 60 min, read-out: Percent remaining 60 min): 3.4% | remaining at 2 h (Ex-vivo plasma stability; 120 min, read-out: Percent remaining 120 min): 2.3% | Mean plasma concentration [1, 2]: 905 nM | Sample 1 plasma concentration [1, 2]: 0.970 µM | Sample 2 plasma concentration [1, 2]: 0.840 µM | TI remaining [1, 2]: 100% | Mean plasma concentration [1, 3]: 855 nM | Sample 1 plasma concentration [1, 3]: 0.850 µM | Sample 2 plasma concentration [1, 3]: 0.860 µM | Mean plasma concentration [1, 4]: 295 nM | Sample 1 plasma concentration [1, 4]: 0.300 µM | Sample 2 plasma concentration [1, 4]: 0.290 µM | Mean plasma concentration [1, 5]: 55 nM | Sample 1 plasma concentration [1, 5]: 0.060 µM | Sample 2 plasma concentration [1, 5]: 0.050 µM | Mean plasma concentration [1, 6]: 30 nM | Sample 1 plasma concentration [1, 6]: 0.060 µM | Sample 2 plasma concentration [1, 6]: 0.030 µM | Mean plasma concentration [1, 7]: 25 nM | Sample 1 plasma concentration [1, 7]: 0.026 µM | Sample 2 plasma concentration [1, 7]: 0.024 µM | Mean plasma concentration [1, 8]: 18 nM | Sample 1 plasma concentration [1, 8]: 0.015 µM | Sample 2 plasma concentration [1, 8]: 0.020 µM | Mean plasma concentration [1, 9]: 11 nM | Sample 1 plasma concentration [1, 9]: 0.010 µM | Sample 2 plasma concentration [1, 9]: 0.011 µM | remaining at 4 h [1, 10]: 1.2% | AUC0-240 [1, 12]: 15.65 μM* min/ml | remaining at 1 min, 1 μM [1, 14]: 94.4% | remaining at 5 min, 1 μM [1, 15]: 32.4% | remaining at 0.25 h, 1 μM [1, 16]: 6.4% | remaining at 0.5 h, 1 μM [1, 17]: 3.3% | remaining at 1 h, 1 μM [1, 18]: 2.8% | remaining at 2 h, 1 μM [1, 19]: 1.9%
Compound: CC(C)C[C@@H]1NC(=O)[C@H](C(C)C)NC(=O)[C@H](CC(N)=O)NC(=O)[C@H](CO)NC(=O)[C@H](CO)NC(=O)[C@H](CC(=O)O)NC(=O)[C@H](CC(=O)O)NC(=O)[C@H](Cc2ccccc2)NC(=O)[C@H](Cc2ccc(O)cc2)NC(=O)[C@@H](N)CSSC[C@@H](C(=O)N[C@@H](CCCCN)C(=O)N[C@@H](CCCCN)C(=O)N[C@@H](Cc2ccc(O)cc2)C(=O)N[C@@H](CCCNC(=N)N)C(=O)N[C@@H](CO)C(=O)O)NC1=O [THR-123, Cys-Tyr-Phe-Asp-Asp-Ser-Ser-Asn-Val-Leu-Cys-Lys-Lys-Tyr-Arg-Ser] (H-CYFDDSSNVLCKKYRS-OH; disulfide 1-11)
